This experiment addresses α-7 nicotinic ACh receptor ion channel expressed in mammalian HEK 293 cells (Rattus norvegicus, UniProt Q05941). Briefly: Ca2+-sensitive, fluorescence-based FLIPR assay for α-7 nicotinic acetylcholine receptor channel function (agonist activity). The experiment is classed as cell-based. Also on record: expressed in transfected cells. Conditions: Ca2+ flux, HEK-293 cells, Fluo-4. Here is the method:
I) α7 Nicotinic Acetycholine Receptor Binding. Membranes were prepared for binding using HEK293 cells stably expressing the rat α7 nicotinic acetycholine receptor (rat α7 nAChR). Cells were homogenized at 4° C. in hypotonic lysis buffer consisting of 10 mM Tris (pH 7.4), 5 mM EDTA and protease inhibitors and centrifuged at 32000×g for 20 minutes. The pellet was washed once in membrane wash buffer consisting of 50 mM Tris (pH 7.4), 1 mM EDTA and protease inhibitors and centrifuged at 32000×g for 20 minutes. This pellet was then resuspended in assay buffer consisting 50 mM KH2PO4 (pH 7.4 at 25° C.), 1 mM EDTA, 0.005% Triton-X 100 and 0.1% (v/v) Sigma Protease Inhibitor Cocktail. Aliquots were then frozen in dry ice/ethanol and kept at −80° C. until the day of the assay. II) A Ca^2+-Sensitive, Fluorescence-Based Assay α-7 for Nicotinic Acetylcholine Receptor Channel Function In Mammalian Cells (“FLIPR”). Summary: Lead compounds are evaluated for agonist activity at α-7, α3β4, α4αβ2, and α1β1δ1ε sub-types of nicotinic ACh receptor ion channels expressed in mammalian HEK 293 cells. Agonist potency and efficacy values are determined from kinetic fluorescence Ca^2+ influx measurements made using a 384 well FLIPR (Fluorescence Image Plate Reader). […] In this assay, channel expressing HEK cell lines seeded in 384 well assay plates are loaded with a membrane permeant fluorescent Ca^2+ indicator dye, whose 510 nm green emission signal increases in response to elevation of intracellular Ca^2+ concentration. The basal fluorescence from the cells is monitored in real time, followed by the acute addition of test compounds.
Materials and Methods: Reagents: The acetomethoxy (AM) ester of the Ca^2+ indicator dye Fluo-4 was obtained from InVitrogen, (Carlsbad, Calif.). Acetylcholine and all buffer constituents were purchased from Sigma Chemical Company, St. Louis, Mo. G418 and Minimal Essential Medium were purchased from InVitrogen Life Technologies, Carlsbad, Calif. Fetal bovine serum was purchased from (InVitrogen, Carlsbad, Calif.).
Cell Culture: HEK-293 cells were grown in Minimal Essential Medium containing 10% (v/v) fetal bovine serum at 37° C. in a 5% CO2 incubator. HEK-293 cells stably expressing the ion channels were grown in the same medium with the addition of 500 μg/ml G418.
Ca^2+ flux assays of Ca^2+ channels expressed in HEK-293 cells: HEK-293 cells expressing the ion channels of interest were plated in 384 well, black-walled, clear-bottomed, poly-D-lysine coated plates at a density of ˜20,000 cells/well in 20 μl of Minimal Essential Medium containing 10% (v/v) fetal bovine serum and incubated for 2 days at 29° C. in a 5% CO2 incubator. Prior to assay, cells were loaded with the Fluo-4 AM ester. […] Dye loading was allowed to proceed for 90 minutes at room temperature at which time the dye loading solution was removed and replaced with 40 μl/well of Hanks buffer. Cells loaded with dye were loaded onto a FLIPR384 (Molecular Devices, Sunnyvale, Calif.). Fluo-4 dye was excited using the 488 nm line of an argon laser. Emission was filtered using a 540+/−30 nm bandpass filter. For evaluation of the effects of test compounds using the Ca^2+ flux assay, compounds to be tested were provided in assay ready plates. For nicotinic receptor ion channel expressing cells, the assay was initiated by the addition of 20 μl/well of Hanks buffer containing test compounds. For all assays, data were collected at 1 Hz for 10 seconds (baseline), at which time the compound containing stimulus buffers are added, and further measurements collected at 0.33 Hz for 3 min.
Data Analysis: The statistical robustness of the nicotinic receptor Ca^2+ flux assays is determined from blanks and totals wells. […] The raw fluorescence units data files generated on the FLIPR plate reader are automatically exported and processed by in-house data analysis tools.
A general note: A change in cytosolic calcium serves as a functional read-out for many receptors and channels.

Setting [1] is: FLIPR α7 activity rating (EC50, nM), agonist potency class.
The mark [2] stands for this setting: agonist potency class, read-out: FLIPR α7 activity rating (EC50).
[3] abbreviates: FLIPR α7-HI (EC50, nM), agonist potency.
The mark [4] stands for this setting: agonist potency, read-out: FLIPR α7-HI (EC50).

Like-named read-outs stand apart in the source and are kept apart here. Some results are limits rather than exact numbers.

The term EC50 denotes the concentration giving half of the maximal effect.

α-7 nicotinic ACh receptor ion channel expressed in mammalian HEK 293 cells, sequence (Q05941 23-502): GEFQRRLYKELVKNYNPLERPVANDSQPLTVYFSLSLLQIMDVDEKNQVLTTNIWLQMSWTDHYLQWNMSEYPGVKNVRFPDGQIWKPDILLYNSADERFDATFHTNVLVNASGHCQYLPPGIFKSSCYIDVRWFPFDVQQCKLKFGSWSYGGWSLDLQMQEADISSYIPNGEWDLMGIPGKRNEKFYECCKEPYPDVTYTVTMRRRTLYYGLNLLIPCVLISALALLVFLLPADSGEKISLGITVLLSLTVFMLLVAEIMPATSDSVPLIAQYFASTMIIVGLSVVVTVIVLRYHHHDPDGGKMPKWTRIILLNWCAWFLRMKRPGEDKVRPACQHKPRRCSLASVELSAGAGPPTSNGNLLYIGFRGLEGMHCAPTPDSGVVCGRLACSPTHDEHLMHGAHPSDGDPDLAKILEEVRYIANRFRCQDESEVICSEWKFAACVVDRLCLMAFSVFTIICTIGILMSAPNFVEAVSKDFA

The molecule `COc1cc(NC2=NC[C@@]3(C[N@@]4CC[C@@H]3C4)O2)ncn1` [Example 13, (3R,4R)—N-(6-Methoxypyrimidin-4-yl)-4′H-1-azaspiro[bicyclo[2.2.1]heptane-3,5′-oxazol]-2′-amine] gave an EC50 under setting [1] of 100 to 1000 nM.

Turning to `Cc1ccc2nc(NC3=NC[C@@]4(C[N@@]5CC[C@@H]4C5)O3)oc2c1` [Example 29, (3R,4R)—N-(6-Methylbenzo[d]oxazol-2-yl)-4′H-1-azaspiro[bicyclo[2.2.1]heptane-3,5′-oxazol]-2′-amine], the EC50 under setting [2] was below 100 nM.

Regarding `c1cncc(-c2cc(NC3=NC[C@@]4(C[N@@]5CC[C@@H]4C5)O3)ncn2)c1` [Example 11, (3R,4R)—N-(6-(Pyridin-3-yl)pyrimidin-4-yl)-4′H-1-azaspiro[bicyclo[2.2.1]heptane-3,5′-oxazol]-2′-amine], the EC50 was 34 nM under setting [3] and below 100 nM under setting [1].

Regarding `Clc1ccc2nc(NC3=NC[C@@]4(C[N@@]5CC[C@@H]4C5)O3)sc2n1` (relative stereo) [Example 3, (3R*,4R*)—N-(5-Chlorothiazolo[5,4-b]pyridin-2-yl)-4′H-1-azaspiro[bicyclo[2.2.1]heptane-3,5′-oxazol]-2′-amine], the EC50 under setting [3] is 91 nM and the EC50 under setting [1] fell in the range of 100 to 1000 nM.

`c1ccc2cc(NC3=NC[C@@]4(C[N@]5CC[C@H]4C5)O3)ncc2c1` (relative stereo) [Example 16, (3R*,4S*)—N-(Isoquinolin-3-yl)-4′H-1-azaspiro[bicyclo[2.2.1]heptane-3,5′-oxazol]-2′-amine] displayed a 50% effective concentration (EC50) under setting [3] of 33 nM and an EC50 under setting [1] below 100 nM.

With `Fc1ccc2nc(NC3=NC[C@@]4(C[N@@]5CC[C@@H]4C5)O3)sc2n1` (relative stereo) [Example 4, (3R*,4R*)—N-(5-Fluorothiazolo[5,4-b]pyridin-2-yl)-4′H-1-azaspiro[bicyclo[2.2.1]heptane-3,5′-oxazol]-2′-amine], under setting [1], the EC50 is 100 to 1000 nM.

Turning to `Clc1cn(-c2cc(NC3=NC[C@@]4(C[N@@]5CC[C@@H]4C5)O3)ncn2)cn1` [Example 20, (3R,4R)—N-(6-(4-Chloro-1H-imidazol-1-yl)pyrimidin-4-yl)-4′H-1-azaspiro[bicyclo[2.2.1]heptane-3,5′-oxazol]-2′-amine], the EC50 is, setting by setting: under setting [3], 129 nM; under setting [1], 100 to 1000 nM.

For the molecule `c1ccc2cc(NC3=NCC4(CN5CCC4C5)O3)ncc2c1` (single isomer, unassigned) [Example 16a], the EC50 under setting [1] is 1000 to 100000 nM.

Turning to `COc1c(NC2=NC[C@@]3(C[N@@]4CC[C@@H]3C4)O2)ncnc1N1CCCC1` [Example 23, (3R,4R)—N-(5-Methoxy-6-(pyrrolidin-1-yl)pyrimidin-4-yl)-4′H-1-azaspiro[bicyclo[2.2.1]heptane-3,5′-oxazol]-2′-amine], the concentration giving a half-maximal response (EC50) under setting [2] is below 100 nM.

`c1cnc2sc(NC3=NC[C@@]4(C[N@@]5CC[C@@H]4C5)O3)nc2c1` (relative stereo) [Example 8, (3R*,4R*)—N-(Thiazolo[5,4-b]pyridin-2-yl)-4′H-1-azaspiro[bicyclo[2.2.1]heptane-3,5′-oxazol]-2′-amine] yielded an EC50 under setting [1] of 100 to 1000 nM.

`c1cnc2sc(NC3=NC[C@@]4(C[N@]5CC[C@H]4C5)O3)nc2c1` (relative stereo) [Example 17, (3R*,4S*)—N-(Thiazolo[5,4-b]pyridin-2-yl)-4′H-1-azaspiro[bicyclo[2.2.1]heptane-3,5′-oxazol]-2′-amine] yielded an EC50 under setting [1] below 100 nM.

Take `COc1ccc2nc(NC3=NC[C@@]4(C[N@@]5CC[C@@H]4C5)O3)sc2c1` (relative stereo) [Example 2, (3R*,4R*)—N-(6-Methoxybenzo[d]thiazol-2-yl)-4′H-1-azaspiro[bicyclo[2.2.1]heptane-3,5′-oxazol]-2′-amine]: the EC50 under setting [2] was in the range of 1000 to 100000 nM.

In turn, `c1nc(NC2=NC[C@@]3(C[N@@]4CC[C@@H]3C4)O2)cc(-n2cncn2)n1` [Example 21, (3R,4R)—N-(6-(1H-1,2,4-Triazol-1-yl)pyrimidin-4-yl)-4′H-1-azaspiro[bicyclo[2.2.1]heptane-3,5′-oxazol]-2′-amine] came in with an EC50 under setting [1] below 100 nM.

Regarding `c1cnc2sc(NC3=NCC4(CN5CCC4C5)O3)nc2c1` (single isomer, unassigned) [Example 17b], the EC50 was 35 nM under setting [3] and below 100 nM under setting [1].

The molecule `c1cnc2sc(NC3=NCC4(CN5CCC4C5)O3)nc2c1` (single isomer, unassigned) [Example 17a] came in with a concentration giving a half-maximal response (EC50) under setting [1] of 1000 to 100000 nM.

With `c1cnc2sc(NC3=NCC4(CN5CCC4C5)O3)nc2c1` (single isomer, unassigned) [Example 8a], the EC50 is, setting by setting: under setting [3], 121 nM; under setting [1], 100 to 1000 nM.

`c1ccc2cc(NC3=NCC4(CN5CCC4C5)O3)ncc2c1` (single isomer, unassigned) [Example 7b] came in with a concentration for a half-maximal effect (EC50) under setting [1] below 100 nM.

As to `c1cc(-c2cc(NC3=NC[C@@]4(C[N@@]5CC[C@@H]4C5)O3)ncn2)ccn1` [Example 18, (3R,4R)—N-(6-(Pyridin-4-yl)pyrimidin-4-yl)-4′H-1-azaspiro[bicyclo[2.2.1]heptane-3,5′-oxazol]-2′-amine], under setting [1], the EC50 is below 100 nM.

With `COc1ccc2nc(NC3=NC[C@@]4(C[N@]5CC[C@H]4C5)O3)sc2c1` (relative stereo) [Example 1, (3R*,4S*)—N-(6-Methoxybenzo[d]thiazol-2-yl)-4′H-1-azaspiro[bicyclo[2.2.1]heptane-3,5′-oxazol]-2′-amine], the EC50 under setting [2] lay within 1000 to 100000 nM and the EC50 under setting [4] was 411 nM.

Under setting [1], `Clc1cnc(NC2=NC[C@@]3(C[N@@]4CC[C@@H]3C4)O2)cn1` [Example 14, (3R,4R)—N-(5-Chloropyrazin-2-yl)-4′H-1-azaspiro[bicyclo[2.2.1]heptane-3,5′-oxazol]-2′-amine] showed an EC50 of 100 to 1000 nM.

`c1ccc2cc(NC3=NCC4(CN5CCC4C5)O3)ncc2c1` (single isomer, unassigned) [Example 16b] showed an EC50 under setting [1] below 100 nM.

As to `COc1ccc(NC2=NC[C@@]3(C[N@@]4CC[C@@H]3C4)O2)nc1` (relative stereo) [Example 10, (3R*,4R*)—N-(5-Methoxypyridin-2-yl)-4′H-1-azaspiro[bicyclo[2.2.1]heptane-3,5′-oxazol]-2′-amine], under setting [1], the EC50 was 100 to 1000 nM.

For the molecule `COc1ccc2nc(NC3=NC[C@@]4(C[N@@]5CC[C@@H]4C5)O3)sc2n1` (relative stereo) [Example 5, (3R*,4R*)—N-(5-Methoxythiazolo[5,4-b]pyridin-2-yl)-4′H-1-azaspiro[bicyclo[2.2.1]heptane-3,5′-oxazol]-2′-amine], the EC50 is 311 nM under setting [3] and 1000 to 100000 nM under setting [1].

Regarding `Cc1cccc(-c2cnc(NC3=NC[C@@]4(C[N@@]5CC[C@@H]4C5)O3)nc2)c1` (relative stereo) [Example 9, (3R*,4R*)—N-(5-m-Tolylpyrimidin-2-yl)-4′H-1-azaspiro[bicyclo[2.2.1]heptane-3,5′-oxazol]-2′-amine], the EC50 was 1000 to 100000 nM under setting [2] and 487 nM under setting [4].

`c1nc(NC2=NC[C@@]3(C[N@@]4CC[C@@H]3C4)O2)c2sccc2n1` [Example 27, (3R,4R)—N-(Thieno[3,2-d]pyrimidin-4-yl)-4′H-1-azaspiro[bicyclo[2.2.1]heptane-3,5′-oxazol]-2′-amine] yielded an EC50 under setting [1] of 100 to 1000 nM.

In the case of `c1ccc2cc(NC3=NCC4(CN5CCC4C5)O3)ncc2c1` (single isomer, unassigned) [Example 7a], under setting [1], the EC50 is below 100 nM.

The record behind these values is US8278320B2, “Azabicyclo[2.2.1]heptane compounds as alpha-7 nicotinic acetylcholine receptor ligands” (Bristol-Myers Squibb Company, priority 2009, dated 2012).
